Reference: patent US6444651B1, “Antimicrobial agents for eucaryotic microorganisms and methods of growth suppression of eucaryotic microorganisms using these agents” (Asama Chemical Co., Ltd., priority 1997, dated 2002)

Tested on: Fungi
Assay: Preservation tests for milky-lotion type hair tonics (Example 9)
Set-up: key: +: Fungi appeared
Details: day 14; 37° C.; DNA 0.03%, control 0.1% Ethyl p-hydroxy benzoate
Description: A milky-lotion type hair tonic was prepared using the components described below. It was manufactured under the open system since microbial infection from the air was expected.
The oil phase (A) and aqueous phase (B) were heated to 85° C., respectively. Then, (A) and (B) were mixed and agitated to emulsification at the same temperature. A hair tonic was prepared after the mixture was cooled down to normal temperature.
The hair tonic prepared was poured into a bottle with 0.03% of the DNA. The bottle was sealed and kept at 37° C. for preservation tests. 0.1% Ethyl p-hydroxy benzoate was added to the hair tonic as a control instead of the DNA.

SMILES: CCOC(=O)c1ccc(O)cc1 [Control, Ethyl p-hydroxy benzoate]
- appearance of fungi in hair tonic: +
